US8309558B2, “Compounds for the treatment of hepatitis C” (Bristol-Myers Squibb Company, priority 2008, dated 2012)
Read-outs that look alike come from different tables or passages of the source.

What was measured:
HCV replicon cells = assay: HCV replicon FRET / luciferase assay (96-well plates); format: cell-based; conditions: Hepatitis C virus, HCV replicon, read-out: EC50
Procedure, shortened: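 Replicon cells + titrated cpds, 37 °C CO2. Alamar blue for cytotoxicity, PBS rinse, then lysis reagent w/ 20 μM FRET peptide (EDANS/DABCYL), 150 mM NaCl; kinetic read ex340/em490, 20 cycles. Alt: Dual-Glo luciferase. EC50 = 50% drop in FRET/luciferase signal after background subtraction.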

[1] = target: T1, HCV NS5B RdRp genotype 1b (Hepatitis C virus genotype 1b, UniProt Q9WMX2); assay: Standard HCV NS5B RdRp enzyme assay; format: biochemical; conditions: HCV NS5B RdRp genotype 1b, read-out: IC50
T1 construct: The protein was expressed with an 18 amino acid C-terminal truncation to enhance the solubility; made in house; host or cells: E. coli BL21(DE3), pET21a vector
T1 sequence (Q9WMX2 2420-2992): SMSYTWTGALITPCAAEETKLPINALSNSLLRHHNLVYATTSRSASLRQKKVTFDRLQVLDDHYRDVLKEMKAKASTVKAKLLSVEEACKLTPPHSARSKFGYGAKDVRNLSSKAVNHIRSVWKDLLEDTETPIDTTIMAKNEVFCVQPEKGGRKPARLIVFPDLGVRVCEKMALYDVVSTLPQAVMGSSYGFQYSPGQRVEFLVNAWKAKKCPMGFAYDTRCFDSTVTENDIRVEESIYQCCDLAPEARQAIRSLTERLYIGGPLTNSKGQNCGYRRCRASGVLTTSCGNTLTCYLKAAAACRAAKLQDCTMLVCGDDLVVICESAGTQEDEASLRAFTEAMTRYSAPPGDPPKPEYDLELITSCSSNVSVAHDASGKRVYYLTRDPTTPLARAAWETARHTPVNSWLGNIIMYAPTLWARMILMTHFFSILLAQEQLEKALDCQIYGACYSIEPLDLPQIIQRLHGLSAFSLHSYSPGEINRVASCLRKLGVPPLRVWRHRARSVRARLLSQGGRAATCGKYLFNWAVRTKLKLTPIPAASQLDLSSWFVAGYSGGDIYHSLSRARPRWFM
Procedure, shortened: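 C-terminally truncated (18 aa) genotype 1b NS5B from E. coli, 28 nM, with 6 nM polyA template, 180 nM biotinylated oligo-dT12 primer and 3H-UTP (0.29 μM total UTP). Hepes pH 7.5 buffer with 2% DMSO; 60 min at 30° C. EDTA stop, SPA read-out; IC50 from seven concentrations by four-parameter fit.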

[2] = untitled table after Table 1b, values without asterisk

| Compound | EC50 (HCV replicon cells; Table 1b) [nM] | IC50 ([1]; Table 1b) [nM] | EC50 (HCV replicon cells; Table 1a) [nM] | IC50 ([1]; Table 1a) [nM] | further results |
| --- | --- | --- | --- | --- | --- |
| CNC(=O)c1c(-c2ccc(F)cc2)oc2ccc(-c3cc(C(=O)NCC(C)C)ccc3OCCc3ccc(O)cc3)cc12 | 250 to 1000 | 250 to 1000 | – | – | – |
| CNC(=O)c1c(-c2ccc(F)cc2)oc2ccc(-c3cc(C(=O)NCC(C)C)ccc3OCCN3CCCC3)cc12 | < 250 | < 250 | – | – | – |
| CNC(=O)c1c(-c2ccc(F)cc2)oc2ccc(-c3cccc(S(=O)(=O)NCc4ccccc4)c3)cc12 | – | – | > 10000 | > 10000 | – |
| CNC(=O)c1c(-c2ccc(F)cc2)oc2ccc(-c3cncc(C(=O)NC(C)(C)C)c3)cc12 | < 250 | < 250 | – | – | – |
| CNC(=O)c1c(-c2ccc(F)cc2)oc2ccc(-c3cc(C(=O)NCC(C)C)ccc3OCCc3ccc(Cl)cc3)cc12 | > 10000 | > 10000 | – | – | – |
| CNC(=O)c1c(-c2ccc(F)cc2)oc2ccc(-c3cccc(C(=O)NC(C)(C)c4ccccc4)c3)c(NC(C)=O)c12 | – | – | 1000 to 10000 | 1000 to 10000 | – |
| CNC(=O)c1c(-c2ccc(F)cc2)oc2ccc(-c3cc(C(=O)NCC(C)C)ccc3OCCCN3CCOCC3)cc12 | < 250 | < 250 | – | – | – |
| CNC(=O)c1c(-c2ccc(F)cc2)oc2ccc(-c3cc(C(=O)NCC(C)C)ccc3OCCOC)cc12 | < 250 | 250 to 1000 | – | – | – |
| CNC(=O)c1c(-c2ccc(F)cc2)oc2ccc(-c3ccc(C(=O)O)c(F)c3)cc12 | – | – | > 10000 | 1000 to 10000 | – |
| CNC(=O)c1c(-c2ccc(F)cc2)oc2ccc(-c3ccc(C(=O)N4CCCC4)cc3)cc12 | – | – | 1000 to 10000 | 1000 to 10000 | – |
| CNC(=O)c1c(-c2ccc(F)cc2)oc2ccc(-c3cccc(C(=O)NC4(c5ccc(F)cc5)CC4)c3)cc12 | – | – | < 250 | < 250 | – |
| CNC(=O)c1c(-c2ccc(F)cc2)oc2ccc(-c3cccc(C(=O)NCc4ccccc4N)c3)cc12 | – | – | 1000 to 10000 | 1000 to 10000 | – |
| CNC(=O)c1c(-c2ccc(F)cc2)oc2ccc(-c3cc(C(=O)NC4(c5ccccn5)CC4)ccc3Cl)cc12 [drawing 384] | < 250 | < 250 | – | – | – |
| CNC(=O)c1c(-c2ccc(F)cc2)oc2cc(N)c(-c3cccc(C(=O)NC(C)(C)c4ccccc4)c3)cc12 [drawing 607] | – | – | – | – | EC50 (HCV replicon cells; [2]): 2.47 nM; IC50 ([1]; untitled table after Table 1b): 5.45 nM |
| CNC(=O)c1c(-c2ccc(F)cc2)oc2ccc(-c3cc(Br)cnc3F)cc12 | – | – | > 10000 | > 10000 | – |
| CNC(=O)c1c(-c2ccc(F)cc2)oc2ccc(-c3cc(F)cc(C(=O)NC4(c5ccccn5)CC4)c3)cc12 | < 250 | < 250 | – | – | – |
| CNC(=O)c1c(-c2ccc(F)cc2)oc2ccc(-c3cc(C(=O)NCC(C)C)ccc3OCCc3c[nH]c4ccccc34)cc12 | 1000 to 10000 | 1000 to 10000 | – | – | – |
| CNC(=O)c1c(-c2ccc(F)cc2)oc2ccc(-c3cc(C(=O)NCC(C)C)ccc3OCCN3CCCCC3)cc12 | < 250 | 250 to 1000 | – | – | – |
| CNC(=O)c1c(-c2ccc(F)cc2)oc2ccc(-c3ccc(-c4cncc(C#N)c4)c(C(=O)NCC(C)C)c3)cc12 | 250 to 1000 | < 250 | – | – | – |
| C#CCNC(=O)C1(NC(=O)c2ccc(C)c(-c3ccc4oc(-c5ccc(F)cc5)c(C(=O)NC)c4c3)c2)CC1 | < 250 | < 250 | – | – | – |

| Compound | EC50 (HCV replicon cells; Table 1b) [nM] | IC50 ([1]; Table 1b) [nM] | EC50 (HCV replicon cells; Table 1a) [nM] | IC50 ([1]; Table 1a) [nM] | further results |
| --- | --- | --- | --- | --- | --- |
| CNC(=O)c1c(-c2ccc(F)cc2)oc2ccc(-c3cc(C(=O)NC4(c5ccccn5)CC4)ccc3C)cc12 [drawing 606] | – | – | – | – | EC50 (HCV replicon cells; [2]): 1.95 nM; IC50 ([1]; untitled table after Table 1b): 8.6 nM |
| CNC(=O)c1c(-c2ccc(F)cc2)oc2ccc(-c3cc(C(=O)NCC(C)C)ccc3OCc3ccccn3)cc12 | < 250 | < 250 | – | – | – |
| CNC(=O)c1c(-c2ccc(F)cc2)oc2ccc(-c3cnc(OC)c(F)c3)cc12 | – | – | 1000 to 10000 | > 10000 | – |
| CNC(=O)c1c(-c2ccc(F)cc2)oc2ccc(-c3ccc(-c4cc(F)cc(F)c4)c(C(=O)NCC(C)C)c3)cc12 | < 250 | 250 to 1000 | – | – | – |
| CNC(=O)c1c(-c2ccc(F)cc2)oc2ccc(-c3cccc(C(=O)N4CCN(C)CC4)c3)cc12 | – | – | > 10000 | > 10000 | – |
| CNC(=O)c1c(-c2ccc(F)cc2)oc2ccc(-c3ccc(-c4ccccc4C(N)=O)c(C(=O)NCC(C)C)c3)cc12 | < 250 | < 250 | – | – | – |
| CNC(=O)c1c(-c2ccc(F)cc2)oc2ccc(-c3cc(C(=O)NCC(C)C)ccc3OCCc3ccccn3)cc12 | < 250 | 250 to 1000 | – | – | – |
| CNC(=O)c1c(-c2ccc(F)cc2)oc2ccc(-c3cccc(C(=O)NC(C)c4cccnc4)c3)cc12 (stereo not shown) | – | – | 250 to 1000 | < 250 | – |
| CNC(=O)c1c(-c2ccc(F)cc2)oc2ccc(-c3cc(C(=O)NCC(C)C)ccc3OC3CCC(N)C3)cc12 (stereo not shown) | < 250 | < 250 | – | – | – |
| CNC(=O)c1c(-c2ccc(F)cc2)oc2ccc(-c3cccc(C(=O)N(C)CCC#N)c3)cc12 [drawing 616] | – | – | – | – | EC50 (HCV replicon cells; [2]): 1380 nM; IC50 ([1]; untitled table after Table 1b): 800 nM |
| CNC(=O)c1c(-c2ccc(F)cc2)oc2ccc(-c3cc(C(=O)NC4(c5nc(C)no5)CC4)c(OC)cc3C)cc12 [drawing 500] | < 250 | < 250 | – | – | – |
| CNC(=O)c1c(-c2ccc(F)cc2)oc2ccc(-c3ccc(C(=O)NCC(C)C)cc3)cc12 | – | – | 250 to 1000 | > 10000 | – |
| CNC(=O)c1c(-c2ccc(F)cc2)oc2ccc(-c3cccc(C(=O)NCc4cnc(C)cn4)c3)cc12 | – | – | 250 to 1000 | 250 to 1000 | – |
| CNC(=O)c1c(-c2ccc(F)cc2)oc2cc(NC(=O)COC)c(-c3cccc(C(=O)NC4(c5ccccc5)CC4)c3)cc12 | – | – | 250 to 1000 | 250 to 1000 | – |
| CNC(=O)c1c(-c2ccc(F)cc2)oc2ccc(-c3cccc(C(=O)NC(C)(C)C(=O)Nc4nccnn4)c3)cc12 | < 250 | < 250 | – | – | – |
| CNC(=O)c1c(-c2ccc(F)cc2)oc2ccc(-c3cccc(C(=O)N[C@@H](CO)C(N)=O)c3)cc12 | – | – | > 10000 | 1000 to 10000 | – |
| CNC(=O)c1c(-c2ccc(F)cc2)oc2cc(N)c(-c3cc(C(=O)NCC(C)C)ccc3OC)cc12 | < 250 | < 250 | – | – | – |
| CNC(=O)c1c(-c2ccc(F)cc2)oc2cc([N+](=O)[O-])c(-c3ccc(OC)c(C(=O)NC4(c5ccccc5)CC4)c3)cc12 | < 250 | < 250 | – | – | – |
| CNC(=O)c1c(-c2ccc(F)cc2)oc2ccc(-c3cc(C(=O)NC4(c5ccncc5)CC4)ccc3C)cc12 [drawing 501] | < 250 | < 250 | – | – | – |
| CNC(=O)c1c(-c2ccc(F)cc2)oc2ccc(-c3cccc(C(=O)NS(=O)(=O)C(C)(C)C)c3)cc12 | – | – | 1000 to 10000 | < 250 | – |

| Compound | EC50 (HCV replicon cells; Table 1b) [nM] | IC50 ([1]; Table 1b) [nM] | EC50 (HCV replicon cells; Table 1a) [nM] | IC50 ([1]; Table 1a) [nM] | further results |
| --- | --- | --- | --- | --- | --- |
| CCC[C@H](CO)NC(=O)c1cccc(-c2ccc3oc(-c4ccc(F)cc4)c(C(=O)NC)c3c2)c1 [drawing 228] | – | – | 1000 to 10000 | 1000 to 10000 | – |
| CNC(=O)c1c(-c2ccc(F)cc2)oc2ccc(-c3cc(C(=O)NC4(c5ncc(C)o5)CC4)ccc3C)cc12 | – | – | – | – | EC50 (HCV replicon cells; 24 h, Table 1d (class symbols)): 1 to 250 nM; IC50 ([1]; Table 1d (class symbols)): < 20 nM |
| CNC(=O)c1c(-c2ccc(F)cc2)oc2ccc(-c3cccc(C(=O)OC(C)(C)C)c3)cc12 | – | – | 1000 to 10000 | 1000 to 10000 | – |
| CNC(=O)c1c(-c2ccc(F)cc2)oc2ccc(-c3cc(OCc4cccnc4)cc(C(=O)NCC(C)C)c3)cc12 | 1000 to 10000 | 1000 to 10000 | – | – | – |
| CNC(=O)c1c(-c2ccc(F)cc2)oc2ccc(-c3cccc(CO)c3)cc12 | – | – | > 10000 | > 10000 | – |
| CNC(=O)c1c(-c2ccc(F)cc2)oc2ccc(-c3cc(C(=O)NC4(c5ccccn5)CC4)c(O)cc3Cl)cc12 | 250 to 1000 | < 250 | – | – | – |
| CNC(=O)c1c(-c2ccc(F)cc2)oc2ccc(-c3cccc(C(=O)NCc4ccccc4O)c3)cc12 | – | – | 1000 to 10000 | 250 to 1000 | – |
| CNC(=O)c1c(-c2ccc(F)cc2)oc2ccc(-c3ccc(Cl)c(C(=O)NCC(C)C)c3)cc12 | – | – | 1000 to 10000 | 1000 to 10000 | – |
| CNC(=O)c1c(-c2ccc(F)cc2)oc2ccc(-c3cccc(C(=O)N[C@@H](CO)c4ccccc4)c3)cc12 | – | – | 1000 to 10000 | 250 to 1000 | – |
| CNC(=O)c1c(-c2ccc(F)cc2)oc2cc(N(CCO)S(C)(=O)=O)c(-c3cccc(C(=O)NC(C)(C)C(=O)Nc4cc(C)no4)c3)cc12 | < 250 | < 250 | – | – | – |
| CNC(=O)c1c(-c2ccc(F)cc2)oc2ccc(-c3ccc(NC(=O)OC(C)(C)C)cc3)cc12 | – | – | > 400 | > 10000 | – |
| CNC(=O)c1c(-c2ccc(F)cc2)oc2ccc(-c3cc(C(=O)NC(C)(C)CN4CCOCC4)ccc3C)cc12 | < 250 | < 250 | – | – | – |
| CNC(=O)c1c(-c2ccc(F)cc2)oc2ccc(-c3ccc(F)cc3CN)cc12 | – | – | > 10000 | > 10000 | – |
| CCOc1cc(C(=O)NCC(C)C)cc(-c2ccc3oc(-c4ccc(F)cc4)c(C(=O)NC)c3c2)c1 | 1000 to 10000 | > 500 | – | – | – |
| CNC(=O)c1c(-c2ccc(F)cc2)oc2ccc(-c3cc(C(=O)NC4(c5nnn[nH]5)CC4)ccc3C)cc12 | 1000 to 10000 | < 250 | – | – | – |
| CNC(=O)c1c(-c2ccc(F)cc2)oc2ccc(-c3cccc(C(=O)Nc4ccncn4)c3)cc12 | – | – | 250 to 1000 | 250 to 1000 | – |
| CNC(=O)c1c(-c2ccc(F)cc2)oc2ccc(-c3cccc(C(=O)NCc4ccc(C)cc4)c3)cc12 | – | – | < 250 | < 250 | – |
| CNC(=O)c1c(-c2ccc(F)cc2)oc2cc(N)c(-c3cccc(C(=O)NCC(C)C)c3)cc12 | < 250 | < 250 | – | – | – |
| CNC(=O)c1c(-c2ccc(F)cc2)oc2ccc(-c3cccc(C(=O)NCCC(C)C)c3)cc12 | – | – | < 250 | 250 to 1000 | – |
